This is an account of results in PubChem BioAssay (NCI).

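A five-concentration, 48-hour dose response in 96-well plates underlies each endpoint, interpolated linearly between surrounding concentrations. The concentration for 50% growth inhibition is given as GI50. The concentration for full growth arrest is given as TGI.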

Assay in all cases: inhibition of tumour cell growth, NCI panel, 48 h
In test [1] the test system is RXF 393 renal.
Test [2] deals with LOX IMVI melanoma.
Test [3] has as its system M14 melanoma.
Test [4] has as its system EKVX NSCLC.
Test [5] relates to TK-10 renal.
The subject of test [6] is SNB-19 CNS.
For test [7], the system named is A498 renal.
Test [8] has as its system HS 578T breast.
The subject of test [9] is SN12C renal.
The test system of test [10] is HOP-62 NSCLC.

On to `CC(C)(C)Cn1c(N)nc2ccc(-c3[nH]c(C(C)(C)C)nc3-c3ccc(F)cc3)nc21`, for which the GI50 in test [1] is 4.04 µM; in [2], 12.8 µM; in test [3], 11.4 µM; in [4] it was 3.19 µM; in test [5] it was 4.56 µM; in test [6] it was 11.7 µM. For the same molecule, the GI50 was 2.14 µM in test [7], 13.7 µM in test [8], 5.57 µM in test [9] and 14.2 µM in [10]. For the same molecule, the TGI was 14.6 µM in test [1]; 27.5 µM in test [2]; 24.7 µM in test [3]; 18.8 µM in test [4]; 18.9 µM in test [5]; 24.8 µM in test [6]. Moreover, the TGI in test [7] stood at 18.2 µM; in [8], 73 µM; in [9], 21.4 µM; in test [10], 29 µM.

On to `CCOC(=O)c1sc(=S)c2c(C(=O)c3ccccc3)c(C(=O)c3ccccc3)sc2c1C(=O)OCC`, for which the GI50 in [1] was 4.48 µM; in test [2], 5.08 µM; in test [3], 5.56 µM; in test [4] it was 4.94 µM; in [5], 3.17 µM; in test [6] it was 8.87 µM. In addition, the GI50 in test [7] was 7.96 µM; in test [8] it was 3.54 µM; in test [9] it was 3.16 µM; in test [10] it was 9.16 µM. For the same molecule, the TGI in test [1] was above 100 µM; in test [2] it was above 100 µM; in [3], above 100 µM; in test [4], 52.2 µM; in [5], 63.5 µM; in test [6], above 100 µM. The TGI in [7] is 52.2 µM; in test [8], 61.1 µM; in test [9] it was 19.2 µM; in test [10], above 100 µM.

For `CC[C@@]1(O)C(=O)NCc2c1cc1n(c2=O)Cc2cc3cc4c(cc3nc2-1)OCO4`, the GI50 is 0.803 µM in test [1]; 0.296 µM in test [2]; 0.441 µM in [3]; 12.9 µM in test [4]; 69.9 µM in test [5]; 0.379 µM in test [6]. Besides, the GI50 is 0.963 µM in test [7], 94.1 µM in test [8], 0.328 µM in test [9] and 0.235 µM in [10]. Besides, the TGI in test [1] is above 100 µM; in test [2] it was 18.2 µM; in test [3], above 39.2 µM; in test [4] it was above 87.1 µM; in test [5], above 100 µM; in test [6], above 61.5 µM. In addition, the TGI in test [7] is 8.73 µM; in [8], above 100 µM; in test [9] it was 11.7 µM; in test [10] it was 20.4 µM.

Consider `COc1ccc(/C=C/C(=O)c2ccc(Nc3ncnc4ccccc34)cc2)cc1OC`, for which the GI50 in [1] is 2.2 µM; in test [2] it was 2.81 µM; in test [3] it was 6.24 µM; in test [4] it was 13.9 µM; in test [5], 8.29 µM; in test [6] it was 11.5 µM. Also, the GI50 was 8.97 µM in test [7], 15.3 µM in test [8], 10.9 µM in test [9] and 9.87 µM in test [10]. Besides, the TGI in test [1] was 9.96 µM; in test [2], 10.4 µM; in test [3], above 100 µM; in [4], above 100 µM; in [5] it was 62.9 µM; in test [6], above 100 µM. The TGI is above 100 µM in test [7], above 100 µM in [8], above 100 µM in [9] and 66.5 µM in test [10].
